{"source": "paper PMC11237399", "about": "“Synergistic effects of sulopenem in combination with cefuroxime or durlobactam against Mycobacterium abscessus” (mBio, 2024)", "key": {"[1]": {"test_system": "T1, Mycobacteroides abscessus subsp. abscessus Mab 686", "T1 construct": "clinical isolate Mab686", "assay": "microbe, parasite or virus in culture", "parameters": "species or system Mycobacterium abscessus clinical isolates; broth microdilution MIC in Middlebrook 7H9 with OADC and Tween 80, 30 C, 3-7 days, visible growth", "details": "single agent, read-out: MIC50 (μg/ml) Alone", "protocol": "(§1) Minimum inhibitory concentrations (MICs) of sulopenem and CXM were determined using microdilution. Approximately 5 × 10^5 colony-forming units (CFU) per milliliter were inoculated into Middlebrook 7H9 broth supplemented with 10% (vol/vol) oleic albumin dextrose catalase (OADC) and 0.05% (vol/vol) Tween 80. When CXM is combined with sulopenem, the CXM is added at a fixed concentration of 4 µg/mL to serial dilutions of sulopenem. Isolates were incubated with test agents at 30°C for 3–7 days, and MIC was defined as the lowest antibiotic concentration that prevented visible bacterial growth. We use active moiety compounds, like cefuroxime salt, and not cefuroxime axetil. The 54 clinical isolates analyzed in this study were obtained from deidentified patients. To ensure consistency and reliability, we specifically selected isolates from our well-characterized whole genome-sequenced clinical isolates belonging to the Mycobacterium abscessus subspecies abscessus. Of these, 34 isolates were sourced from National Jewish Health, whereas 11 and 9 isolates were obtained from University Hospitals Cleveland Medical Center and Cleveland Metrohealth, respectively. Additionally, ATCC 19977 was acquired from the American Type Culture Collection (ATCC). The active ingredient cefuroxime (CXM) salts and avibactam (AVI) were purchased from AchemBlock, sulopenem was sourced from Iterum Therapeutics, and durlobactam (DUR) was provided from Entasis Therapeutics. All β-lactams and BLIs were prepared in sterile, distilled water or in broth and filter-sterilized with a 0.22 µm PES syringe filter."}, "[2]": {"test_system": "T2, Mycobacteroides abscessus subsp. abscessus Mab 122", "T2 construct": "clinical isolate Mab122", "assay": "microbe, parasite or virus in culture", "parameters": "species or system Mycobacterium abscessus clinical isolates; broth microdilution MIC in Middlebrook 7H9 with OADC and Tween 80, 30 C, 3-7 days, visible growth", "details": "single agent, read-out: MIC50 (μg/ml) Alone", "protocol": "as §1"}, "[3]": {"biological_target": "T3, LdtMab2 (Mycobacteroides abscessus, UniProt B1MMQ4)", "T3 construct": "gene MAB_1530; truncated (delta 1-41), pET28a(+), E. coli BL2 (DE3), His tag cut by TEV", "T3 sequence (B1MMQ4 42-406)": "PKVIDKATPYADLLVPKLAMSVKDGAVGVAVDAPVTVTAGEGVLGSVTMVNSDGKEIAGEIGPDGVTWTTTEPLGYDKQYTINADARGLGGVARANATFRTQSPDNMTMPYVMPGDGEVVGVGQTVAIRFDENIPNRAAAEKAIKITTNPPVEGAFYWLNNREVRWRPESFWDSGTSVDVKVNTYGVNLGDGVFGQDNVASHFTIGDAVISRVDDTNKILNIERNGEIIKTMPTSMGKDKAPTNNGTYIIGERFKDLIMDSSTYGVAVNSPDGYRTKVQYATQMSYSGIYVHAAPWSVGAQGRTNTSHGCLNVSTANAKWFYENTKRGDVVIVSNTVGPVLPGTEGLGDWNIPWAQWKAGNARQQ", "assay": "intact-protein UPLC-ESI-MS (Q-TOF)", "assay_type": "binding", "details": "covalent; 1:20 enzyme:ligand, 50 mM Tris-HCl pH 7.5, 300 mM NaCl, room temperature"}, "[4]": {"biological_target": "T4, PBP B (Mycobacteroides abscessus, UniProt B1MP31)", "T4 construct": "gene MAB_2000; truncated (delta 1-41), pET28a(+), E. coli BL2 (DE3), His tag cut by TEV", "T4 sequence (B1MP31 42-642)": "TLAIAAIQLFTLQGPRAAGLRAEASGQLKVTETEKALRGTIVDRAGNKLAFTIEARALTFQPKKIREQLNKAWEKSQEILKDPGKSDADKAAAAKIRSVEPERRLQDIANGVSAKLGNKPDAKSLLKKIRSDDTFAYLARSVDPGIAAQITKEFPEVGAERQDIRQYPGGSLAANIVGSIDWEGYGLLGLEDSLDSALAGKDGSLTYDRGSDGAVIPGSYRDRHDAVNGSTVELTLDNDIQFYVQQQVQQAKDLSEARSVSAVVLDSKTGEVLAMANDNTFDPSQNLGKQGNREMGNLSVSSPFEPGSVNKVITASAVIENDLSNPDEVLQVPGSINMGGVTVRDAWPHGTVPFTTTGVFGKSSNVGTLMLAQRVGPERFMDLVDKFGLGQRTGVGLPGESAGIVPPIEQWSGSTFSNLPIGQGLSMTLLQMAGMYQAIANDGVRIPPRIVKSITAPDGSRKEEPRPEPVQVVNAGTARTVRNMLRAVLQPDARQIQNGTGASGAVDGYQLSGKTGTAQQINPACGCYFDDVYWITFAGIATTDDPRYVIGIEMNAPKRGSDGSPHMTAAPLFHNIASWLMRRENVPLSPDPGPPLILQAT", "assay": "intact-protein UPLC-ESI-MS (Q-TOF)", "assay_type": "binding", "details": "covalent; 1:20 enzyme:ligand, 50 mM Tris-HCl pH 7.5, 300 mM NaCl, room temperature"}}, "data": [{"smiles": "NC(=O)[C@@H]1CC[C@@H]2CN1C(=O)N2OS(=O)(=O)O", "note": "[avibactam]", "values": [{"measurement": "MIC50", "setting": "[1]", "result": "> 128", "unit": "µg/mL"}, {"measurement": "MIC50", "setting": "[2]", "result": "> 128", "unit": "µg/mL"}]}, {"smiles": "CO/N=C(\\C(=O)N[C@@H]1C(=O)N2C(C(=O)O)=C(COC(N)=O)CS[C@H]12)c1ccco1", "note": "[cefuroxime]", "values": [{"measurement": "intact-protein UPLC-ESI-MS (Q-TOF)", "setting": "[3]", "result": "CXM engaged solely with LdtMab2 and PBP B"}, {"measurement": "MIC50", "setting": "[1]", "result": 8, "unit": "µg/mL"}, {"measurement": "MIC50", "setting": "[2]", "result": 4, "unit": "µg/mL"}, {"measurement": "intact-protein UPLC-ESI-MS (Q-TOF)", "setting": "[4]", "result": "CXM engaged solely with LdtMab2 and PBP B"}]}, {"smiles": "C[C@@H](O)[C@H]1C(=O)N2C(C(=O)O)=C(S[C@H]3CC[S@@+]([O-])C3)S[C@H]12", "note": "[sulopenem]", "values": [{"measurement": "MIC50", "setting": "[1]", "result": 2, "unit": "µg/mL"}, {"measurement": "MIC50", "setting": "[2]", "result": 0.5, "unit": "µg/mL"}]}]}
